Literature values as cited in publication PMC4648373 (Cancer prevention research (Philadelphia, Pa.), 2015).
Read-outs that look alike come from different tables or passages of the source.

Legend:
[1] = test system: AR signaling; settings: cell culture models, same concentration range
[2] = healthy human subjects
[3] = rodents

Row | Compound | anti-androgen (AR) signaling, cellular growth and survival activities [1] | conversion to DOH [2] | conversion to DOH [3]
1 | CC(C)=CC(=O)O[C@H]1Cc2cc3ccc(=O)oc3cc2OC1(C)C [D, Decursin] | identical anti-androgen signaling and anti-proliferative activities | extensive conversion | rapidly and extensively converted to DOH
2 | CC1(C)Oc2cc3oc(=O)ccc3cc2C[C@@H]1O [DOH, decursinol] | much less inhibitory |  | 
3 | C/C=C(/C)C(=O)O[C@H]1Cc2cc3ccc(=O)oc3cc2OC1(C)C [DA, decursinol angelate] | identical anti-androgen signaling and anti-proliferative activities | extensive conversion | rapidly and extensively converted to DOH
